Organism: Rattus norvegicus
Assay: Open TG-GATES - Regimen: Daily Repeat
Type: toxicity, organism-based, Sprague-Dawley
Design: regimen Daily Repeat, gender Male, age 6 weeks
Details: in vivo, po, 0 mg/kg, route gavage, dose level Control; for APTT / Bas / Eos / Fbg / Hb / Ht / Lym / MCH / MCHC / MCV / Mono / Neu / PT / Plat / RBC / Ret / WBC: tissue Blood; for KIDNEY_L / KIDNEY_R / KIDNEY_TOTAL: tissue Kidney; for LIVER: tissue Liver; for A/G / ALP / ALT / AST / BUN / CRE / Ca / Cl / DBIL / GLC / IP / K / LDH / Na / PL / RALB / TBIL / TC / TG / TP / gamma-GTP: tissue Plasma

CN(C)[C@@H]1C(O)=C(C(N)=O)C(=O)[C@@]2(O)C(O)=C3C(=O)c4c(O)cccc4[C@@](C)(O)[C@H]3C[C@@H]12 [TETRACYCLINE]
TERMINAL_BW (72 h, time 3 day): 188 g | APTT (72 h, time 3 day): 16 s | Bas (72 h, time 3 day): 0% | Eos (72 h, time 3 day): 0.8% | Fbg (72 h, time 3 day): 221 mg/dL | Hb (72 h, time 3 day): 13.6 g/dL | Ht (72 h, time 3 day): 41.2% | Lym (72 h, time 3 day): 82.4% | MCH (72 h, time 3 day): 21.9 pg | MCHC (72 h, time 3 day): 33.1% | MCV (72 h, time 3 day): 66 fL | Mono (72 h, time 3 day): 6.8% | Neu (72 h, time 3 day): 10% | PT (72 h, time 3 day): 12.3 s | Plat (72 h, time 3 day): 96.9 x10_4/uL | RBC (72 h, time 3 day): 625 x10_4/ul | Ret (72 h, time 3 day): 8.2% | WBC (72 h, time 3 day): 111.7 x10_2/uL | KIDNEY_L (72 h, time 3 day): 0.9 g | KIDNEY_R (72 h, time 3 day): 0.9 g | KIDNEY_TOTAL (72 h, time 3 day): 1.7 g | LIVER (72 h, time 3 day): 9 g | A/G (72 h, time 3 day): 2.2 | ALP (72 h, time 3 day): 921.6 IU/L | ALT (72 h, time 3 day): 43.6 IU/L | AST (72 h, time 3 day): 69 IU/L | BUN (72 h, time 3 day): 17.6 mg/dL | CRE (72 h, time 3 day): 0.6 mg/dL | Ca (72 h, time 3 day): 11.2 mg/dL | Cl (72 h, time 3 day): 105.4 meq/L | DBIL (72 h, time 3 day): 0.008 mg/dL | GLC (72 h, time 3 day): 183 mg/dL | IP (72 h, time 3 day): 8.2 mg/dL | K (72 h, time 3 day): 4.7 meq/L | LDH (72 h, time 3 day): 99.8 IU/L | Na (72 h, time 3 day): 140.2 meq/L | PL (72 h, time 3 day): 150.2 mg/dL | RALB (72 h, time 3 day): 4 g/dL | TBIL (72 h, time 3 day): 0.3 mg/dL | TC (72 h, time 3 day): 83.2 mg/dL | TG (72 h, time 3 day): 80.2 mg/dL | TP (72 h, time 3 day): 5.8 g/dL | gamma-GTP (72 h, time 3 day): 1.4 IU/L | TERMINAL_BW ([…], time 7 day): 228 g | TERMINAL_BW ([…], time 14 day): 287.8 g | TERMINAL_BW ([…], time 28 day): 360.5 g | APTT ([…], time 7 day): 18.8 s | Bas ([…], time 7 day): 0% | Eos ([…], time 7 day): 1% | Fbg ([…], time 7 day): 226.7 mg/dL | Hb ([…], time 7 day): 13.6 g/dL | Ht ([…], time 7 day): 40.4% | Lym ([…], time 7 day): 80.8% | MCH ([…], time 7 day): 21.6 pg | MCHC ([…], time 7 day): 33.5% | MCV ([…], time 7 day): 64.3 fL | Mono ([…], time 7 day): 6.2% | Neu ([…], time 7 day): 12% | PT ([…], time 7 day): 12.1 s | Plat ([…], time 7 day): 112.5 x10_4/uL | RBC ([…], time 7 day): 629.6 x10_4/ul | Ret ([…], time 7 day): 6.6% | WBC ([…], time 7 day): 142 x10_2/uL | APTT ([…], time 14 day): 17 s | Bas ([…], time 14 day): 0% | Eos ([…], time 14 day): 0.6% | Fbg ([…], time 14 day): 238.4 mg/dL | Hb ([…], time 14 day): 13.9 g/dL | Ht ([…], time 14 day): 41.6% | Lym ([…], time 14 day): 80.4% | MCH ([…], time 14 day): 20.9 pg | MCHC ([…], time 14 day): 33.5% | MCV ([…], time 14 day): 62.3 fL | Mono ([…], time 14 day): 5.6% | Neu ([…], time 14 day): 13.6% | PT ([…], time 14 day): 11.7 s | Plat ([…], time 14 day): 109.2 x10_4/uL | RBC ([…], time 14 day): 668.4 x10_4/ul | Ret ([…], time 14 day): 5.7% | WBC ([…], time 14 day): 131 x10_2/uL | APTT ([…], time 28 day): 17.8 s | Bas ([…], time 28 day): 0% | Eos ([…], time 28 day): 1.4% | Fbg ([…], time 28 day): 235.8 mg/dL | Hb ([…], time 28 day): 14.8 g/dL | Ht ([…], time 28 day): 43.9% | Lym ([…], time 28 day): 83% | MCH ([…], time 28 day): 19.6 pg | MCHC ([…], time 28 day): 33.6% | MCV ([…], time 28 day): 58.3 fL | Mono ([…], time 28 day): 4.4% | Neu ([…], time 28 day): 11.6% | PT ([…], time 28 day): 11.8 s | Plat ([…], time 28 day): 100.7 x10_4/uL | RBC ([…], time 28 day): 753.4 x10_4/ul | Ret ([…], time 28 day): 2.9% | WBC ([…], time 28 day): 164.6 x10_2/uL | KIDNEY_L ([…], time 7 day): 1 g | KIDNEY_R ([…], time 7 day): 1 g | KIDNEY_TOTAL ([…], time 7 day): 2 g | KIDNEY_L ([…], time 14 day): 1.2 g | KIDNEY_R ([…], time 14 day): 1.2 g | KIDNEY_TOTAL ([…], time 14 day): 2.3 g | KIDNEY_L ([…], time 28 day): 1.3 g | KIDNEY_R ([…], time 28 day): 1.3 g | KIDNEY_TOTAL ([…], time 28 day): 2.7 g | LIVER ([…], time 7 day): 10.9 g | LIVER ([…], time 14 day): 13.5 g | LIVER ([…], time 28 day): 16 g | A/G ([…], time 7 day): 2.1 | ALP ([…], time 7 day): 1017 IU/L | ALT ([…], time 7 day): 38.2 IU/L | AST ([…], time 7 day): 63.2 IU/L | BUN ([…], time 7 day): 19 mg/dL | CRE ([…], time 7 day): 0.6 mg/dL | Ca ([…], time 7 day): 11 mg/dL | Cl ([…], time 7 day): 106.4 meq/L | DBIL ([…], time 7 day): 0.006 mg/dL | GLC ([…], time 7 day): 184.4 mg/dL | IP ([…], time 7 day): 8.1 mg/dL | K ([…], time 7 day): 6.3 meq/L | LDH ([…], time 7 day): 107.6 IU/L | Na ([…], time 7 day): 139 meq/L | PL ([…], time 7 day): 157.8 mg/dL | RALB ([…], time 7 day): 3.9 g/dL | TBIL ([…], time 7 day): 0.3 mg/dL | TC ([…], time 7 day): 83.4 mg/dL | TG ([…], time 7 day): 90.8 mg/dL | TP ([…], time 7 day): 5.7 g/dL | gamma-GTP ([…], time 7 day): 1 IU/L | A/G ([…], time 14 day): 1.8 | ALP ([…], time 14 day): 903 IU/L | ALT ([…], time 14 day): 30.6 IU/L | AST ([…], time 14 day): 67.4 IU/L | BUN ([…], time 14 day): 18.6 mg/dL | CRE ([…], time 14 day): 0.5 mg/dL | Ca ([…], time 14 day): 11.1 mg/dL | Cl ([…], time 14 day): 103.2 meq/L | DBIL ([…], time 14 day): 0.01 mg/dL | GLC ([…], time 14 day): 175.2 mg/dL | IP ([…], time 14 day): 7.9 mg/dL | K ([…], time 14 day): 4.7 meq/L | LDH ([…], time 14 day): 100.6 IU/L | Na ([…], time 14 day): 141 meq/L | PL ([…], time 14 day): 154.6 mg/dL | RALB ([…], time 14 day): 4 g/dL | TBIL ([…], time 14 day): 0.3 mg/dL | TC ([…], time 14 day): 72.2 mg/dL | TG ([…], time 14 day): 134.8 mg/dL | TP ([…], time 14 day): 6.2 g/dL | gamma-GTP ([…], time 14 day): 1.6 IU/L | A/G ([…], time 28 day): 1.7 | ALP ([…], time 28 day): 807.8 IU/L | ALT ([…], time 28 day): 31.2 IU/L | AST ([…], time 28 day): 58.2 IU/L | BUN ([…], time 28 day): 20.8 mg/dL | CRE ([…], time 28 day): 0.6 mg/dL | Ca ([…], time 28 day): 10.9 mg/dL | Cl ([…], time 28 day): 106.2 meq/L | DBIL ([…], time 28 day): 0.016 mg/dL | GLC ([…], time 28 day): 175.2 mg/dL | IP ([…], time 28 day): 7.2 mg/dL | K ([…], time 28 day): 4.6 meq/L | LDH ([…], time 28 day): 91.4 IU/L | Na ([…], time 28 day): 140 meq/L | PL ([…], time 28 day): 164 mg/dL | RALB ([…], time 28 day): 3.8 g/dL | TBIL ([…], time 28 day): 0.3 mg/dL | TC ([…], time 28 day): 78.2 mg/dL | TG ([…], time 28 day): 154.8 mg/dL | TP ([…], time 28 day): 6.1 g/dL | gamma-GTP ([…], time 28 day): 1 IU/L

Source: ChEMBL document CHEMBL3885861, “Open TG-GATES”
